# Assay results: patent publication US10301304B2, “Selective inhibitor of phosphatidylinositol 3-kinase-gamma” (VERTEX PHARMACEUTICALS INCORPORATED, priority 2013, dated 2019)
# Where two headings read alike, the source gives them in different places.
# Experiment: Tissue Distribution in Rats
# Assay type: in vivo, rat
# Conditions: rat, 5 mg/kg oral
# Procedure: Compound 1 distributed well into most tissues after an oral dose of 5 mg/kg administered to male rats. […] The tissue to plasma ratio followed the trend of liver>kidney>heart>lung>spleen>brain>CSF. The elimination kinetics of Compound 1 in each examined organ followed plasma kinetics. There was no evidence for tissue accumulation of Compound 1 after a single dose administration.
smiles,measurement,setting,value
"Cc1cc(-c2cncc([C@@H](O)C(F)(F)F)c2)nc2c1C(=O)N(c1cnn(CC(F)F)c1)C2(C)C [Compound 1, (R)-6-(1-(2,2-difluoroethyl)-1H-pyrazol-4-yl)-4,7,7-trimethyl-2-(5-(2,2,2-trifluoro-1-hydroxyethyl)pyridin-3-yl)-6,7-dihydro-5H-pyrrolo[3,4-b]pyridin-5-one]",Kp at 2 hr,"male, kidney, 2 hr post dose, read-out: Tissue to Plasma Ratio, Kidney",2.54
same,Kp at 7 hr,"male, kidney, 7 hr post dose, read-out: Tissue to Plasma Ratio, Kidney",2.16
same,Kp at 24 hr,"male, kidney, 24 hr post dose, read-out: Tissue to Plasma Ratio, Kidney",3.03
same,Kp at 48 hr,"male, kidney, 48 hr post dose, read-out: Tissue to Plasma Ratio, Kidney",4.76
same,Kp at 0.5 h,"male, liver, 0.5 hr post dose, read-out: Tissue to Plasma Ratio, Liver",4.96
same,Kp at 2 h,"male, liver, 2 hr post dose, read-out: Tissue to Plasma Ratio, Liver",6.99
same,Kp at 7 h,"male, liver, 7 hr post dose, read-out: Tissue to Plasma Ratio, Liver",5.13
same,Kp at 24 h,"male, liver, 24 hr post dose, read-out: Tissue to Plasma Ratio, Liver",5.69
same,Kp at 48 hr,"male, liver, 48 hr post dose, read-out: Tissue to Plasma Ratio, Liver",5.32
same,Kp at 0.5 h,"male, lung, 0.5 hr post dose, read-out: Tissue to Plasma Ratio, Lung",1.24
same,Kp at 2 h,"male, lung, 2 hr post dose, read-out: Tissue to Plasma Ratio, Lung",1.38
same,Kp at 7 h,"male, lung, 7 hr post dose, read-out: Tissue to Plasma Ratio, Lung",1.22
same,Kp at 24 h,"male, lung, 24 hr post dose, read-out: Tissue to Plasma Ratio, Lung",1.17
same,Kp at 48 h,"male, lung, 48 hr post dose, read-out: Tissue to Plasma Ratio, Lung",1.31
same,Kp at 0.5 h,"male, spleen, 0.5 hr post dose, read-out: Tissue to Plasma Ratio, Spleen",0.74
same,Kp at 2 h,"male, spleen, 2 hr post dose, read-out: Tissue to Plasma Ratio, Spleen",1.15
same,Kp at 7 h,"male, spleen, 7 hr post dose, read-out: Tissue to Plasma Ratio, Spleen",0.81
same,Kp at 24 h,"male, spleen, 24 hr post dose, read-out: Tissue to Plasma Ratio, Spleen",0.93
same,Kp at 48 h,"male, spleen, 48 hr post dose, read-out: Tissue to Plasma Ratio, Spleen",0.88
same,"Compound 1 Concentration, Brain",0.5 hr post dose,74 ng/ml or ng/g
same,"Compound 1 Concentration, CSF",0.5 hr post dose,20 ng/ml or ng/g
same,"Compound 1 Concentration, Heart",0.5 hr post dose,1730 ng/ml or ng/g
same,"Compound 1 Concentration, Kidney",0.5 hr post dose,3070 ng/ml or ng/g
same,"Compound 1 Concentration, Liver",0.5 hr post dose,8710 ng/ml or ng/g
same,"Compound 1 Concentration, Lung",0.5 hr post dose,2180 ng/ml or ng/g
same,"Compound 1 Concentration, Plasma",0.5 hr post dose,1760 ng/ml or ng/g
same,"Compound 1 Concentration, Spleen",0.5 hr post dose,1290 ng/ml or ng/g
same,"Compound 1 Concentration, Brain",2 hr post dose,129 ng/ml or ng/g
same,"Compound 1 Concentration, CSF",2 hr post dose,23.3 ng/ml or ng/g
same,"Compound 1 Concentration, Heart",2 hr post dose,3280 ng/ml or ng/g
same,"Compound 1 Concentration, Kidney",2 hr post dose,4980 ng/ml or ng/g
same,"Compound 1 Concentration, Liver",2 hr post dose,13700 ng/ml or ng/g
same,"Compound 1 Concentration, Lung",2 hr post dose,2710 ng/ml or ng/g
same,"Compound 1 Concentration, Plasma",2 hr post dose,1960 ng/ml or ng/g
same,"Compound 1 Concentration, Spleen",2 hr post dose,1790 ng/ml or ng/g
same,"Compound 1 Concentration, Brain",7 hr post dose,111 ng/ml or ng/g
same,"Compound 1 Concentration, CSF",7 hr post dose,27 ng/ml or ng/g
same,"Compound 1 Concentration, Heart",7 hr post dose,3100 ng/ml or ng/g
same,"Compound 1 Concentration, Kidney",7 hr post dose,4770 ng/ml or ng/g
same,"Compound 1 Concentration, Liver",7 hr post dose,11400 ng/ml or ng/g
same,"Compound 1 Concentration, Lung",7 hr post dose,2700 ng/ml or ng/g
same,"Compound 1 Concentration, Plasma",7 hr post dose,2210 ng/ml or ng/g
same,"Compound 1 Concentration, Spleen",7 hr post dose,491 ng/ml or ng/g
same,"Compound 1 Concentration, Brain",24 hr post dose,30 ng/ml or ng/g
same,"Compound 1 Concentration, CSF",24 hr post dose,5 ng/ml or ng/g
same,"Compound 1 Concentration, Heart",24 hr post dose,771 ng/ml or ng/g
same,"Compound 1 Concentration, Kidney",24 hr post dose,1600 ng/ml or ng/g
same,"Compound 1 Concentration, Liver",24 hr post dose,3010 ng/ml or ng/g
same,"Compound 1 Concentration, Lung",24 hr post dose,617 ng/ml or ng/g
same,"Compound 1 Concentration, Plasma",24 hr post dose,592 ng/ml or ng/g
same,"Compound 1 Concentration, Spleen",24 hr post dose,125 ng/ml or ng/g
same,"Compound 1 Concentration, Brain",48 hr post dose,9.35 ng/ml or ng/g
same,"Compound 1 Concentration, CSF",48 hr post dose,BQL
same,"Compound 1 Concentration, Heart",48 hr post dose,196 ng/ml or ng/g
same,"Compound 1 Concentration, Kidney",48 hr post dose,673 ng/ml or ng/g
same,"Compound 1 Concentration, Liver",48 hr post dose,750 ng/ml or ng/g
same,"Compound 1 Concentration, Lung",48 hr post dose,185 ng/ml or ng/g
same,"Compound 1 Concentration, Plasma",48 hr post dose,141 ng/ml or ng/g
same,"Compound 1 Concentration, Spleen",48 hr post dose,BQL
same,"Tissue to Plasma Ratio, CSF",48 hr post dose,BQL
same,Kp,"brain and CSF, relative to plasma, male rats, read-out: brain and CSF exposure, % of the plasma exposure",< 0.001
same,Cmax,"cerebrospinal fluid (CSF), male rats",27 ng/mL
